The NIST ThermoML archive (doi:10.1016/j.jct.2008.10.010)

Assay: molar heat capacity at constant pressure; xn = mol fraction of the nth substance listed
Conditions: 101.3 kPa, Liquid, Small sample (50 mg) DSC

CCC(C)(C)O [2-methylbutan-2-ol] + CCCCCCC
Conditions	molar heat capacity at constant pressure [J/K/mol]
318.15 K, x1 = 0.4051	268.55
318.15 K, x1 = 0.4986	270.68
318.15 K, x1 = 0.5981	271.65
318.15 K, x1 = 0.7015	272.08
318.15 K, x1 = 0.8023	271.36
318.15 K, x1 = 0.9139	270.14
318.15 K, x1 = 0.9609	269.17
319.15 K, x1 = 0.0061	232.58
319.15 K, x1 = 0.0494	240.63
319.15 K, x1 = 0.1	249.49
319.15 K, x1 = 0.1547	255.72
319.15 K, x1 = 0.1999	259.62
319.15 K, x1 = 0.2993	265.58
319.15 K, x1 = 0.4051	269.3
319.15 K, x1 = 0.4986	271.51
319.15 K, x1 = 0.5981	272.56
319.15 K, x1 = 0.7015	273.04
319.15 K, x1 = 0.8023	272.38
319.15 K, x1 = 0.9609	270.15
319.16 K, x1 = 0.0249	235.12
319.16 K, x1 = 0.9139	271.16
320.14 K, x1 = 0.0061	232.92
320.14 K, x1 = 0.0249	235.28
320.14 K, x1 = 0.0494	240.72
320.14 K, x1 = 0.1	249.68
320.14 K, x1 = 0.1547	255.93
320.14 K, x1 = 0.1999	260.03
320.14 K, x1 = 0.2993	266.13
320.14 K, x1 = 0.4051	269.96
320.14 K, x1 = 0.4986	272.22
320.14 K, x1 = 0.5981	273.33
320.14 K, x1 = 0.7015	273.87
320.14 K, x1 = 0.8023	273.27
320.14 K, x1 = 0.9139	272.09
320.14 K, x1 = 0.9609	270.99
321.15 K, x1 = 0.0061	233.36
321.15 K, x1 = 0.0249	235.64
321.15 K, x1 = 0.0494	240.94
321.15 K, x1 = 0.1	249.94
321.15 K, x1 = 0.1547	256.42
321.15 K, x1 = 0.1999	260.55
321.15 K, x1 = 0.2993	266.78
321.15 K, x1 = 0.4051	270.74
321.15 K, x1 = 0.4986	273.12
321.15 K, x1 = 0.5981	274.26
321.15 K, x1 = 0.7015	274.94
321.15 K, x1 = 0.8023	274.3
321.15 K, x1 = 0.9139	273.21
321.15 K, x1 = 0.9609	272.08
322.15 K, x1 = 0.0061	233.83
322.15 K, x1 = 0.0249	235.95
322.15 K, x1 = 0.0494	241.13
322.15 K, x1 = 0.1	250.19
322.15 K, x1 = 0.1547	256.8
322.15 K, x1 = 0.1999	261.03
322.15 K, x1 = 0.2993	267.36
322.15 K, x1 = 0.4051	271.46
322.15 K, x1 = 0.4986	273.9
322.15 K, x1 = 0.5981	275.18
322.15 K, x1 = 0.7015	275.82
322.15 K, x1 = 0.8023	275.19
322.15 K, x1 = 0.9139	274.13
322.15 K, x1 = 0.9609	272.97
323.14 K, x1 = 0.0061	234.21
323.14 K, x1 = 0.0249	236.15
323.14 K, x1 = 0.0494	241.26
323.14 K, x1 = 0.1	250.37
323.14 K, x1 = 0.1547	257.15
323.14 K, x1 = 0.1999	261.38
323.14 K, x1 = 0.2993	267.94
323.14 K, x1 = 0.4051	272.09
323.14 K, x1 = 0.4986	274.67
323.14 K, x1 = 0.5981	275.95
323.14 K, x1 = 0.7015	276.7
323.14 K, x1 = 0.8023	276.15
323.14 K, x1 = 0.9139	275.08
323.14 K, x1 = 0.9609	273.92
324.15 K, x1 = 0.0061	234.52
324.15 K, x1 = 0.0249	236.43
324.15 K, x1 = 0.0494	241.45
324.15 K, x1 = 0.1	250.6
324.15 K, x1 = 0.1547	257.46
324.15 K, x1 = 0.1999	261.78
324.15 K, x1 = 0.2993	268.5
324.15 K, x1 = 0.4051	272.8
324.15 K, x1 = 0.4986	275.41
324.15 K, x1 = 0.5981	276.79
324.15 K, x1 = 0.7015	277.57
324.15 K, x1 = 0.8023	277.05
324.15 K, x1 = 0.9139	275.96
324.15 K, x1 = 0.9609	274.86
325.15 K, x1 = 0.0061	234.92
325.15 K, x1 = 0.0249	236.8
325.15 K, x1 = 0.0494	241.6
325.15 K, x1 = 0.1	250.76
325.15 K, x1 = 0.1547	257.7
325.15 K, x1 = 0.1999	262.12
325.15 K, x1 = 0.2993	269.04
325.15 K, x1 = 0.4051	273.4
325.15 K, x1 = 0.4986	276.1
325.15 K, x1 = 0.5981	277.56
325.15 K, x1 = 0.7015	278.38
325.15 K, x1 = 0.8023	277.92
325.15 K, x1 = 0.9139	276.88
325.15 K, x1 = 0.9609	275.71
326.14 K, x1 = 0.0061	235.39
326.14 K, x1 = 0.0249	237.1
326.14 K, x1 = 0.0494	241.8
326.14 K, x1 = 0.1	250.96
326.14 K, x1 = 0.1547	258.02
326.14 K, x1 = 0.1999	262.54
326.14 K, x1 = 0.2993	269.54
326.14 K, x1 = 0.4051	274.06
326.14 K, x1 = 0.4986	276.85
326.14 K, x1 = 0.5981	278.41
326.14 K, x1 = 0.7015	279.29
326.14 K, x1 = 0.8023	278.83
326.14 K, x1 = 0.9139	277.8
326.14 K, x1 = 0.9609	276.69
327.14 K, x1 = 0.1999	262.84
327.15 K, x1 = 0.0061	235.69
327.15 K, x1 = 0.0249	237.39
327.15 K, x1 = 0.0494	241.94
327.15 K, x1 = 0.1	251.07
